The NIST ThermoML archive (doi:10.1016/j.fluid.2017.09.005)
Numbers after ± are expanded uncertainties.

Assay: xn = mol fraction of the nth substance listed
Details: Liquid; for viscosity: Capillary tube (Ostwald / Ubbelohde) method; for mass density: Vibrating tube method

CCO [ethanol] + O
Details | mass density, 20000 kPa [kg/m3] | mass density, 30000 kPa [kg/m3] | mass density, 40000 kPa [kg/m3] | viscosity, 20000 kPa [mPa·s] | viscosity, 30000 kPa [mPa·s] | viscosity, 40000 kPa [mPa·s]
523.2 K, x1 = 0.1 | 745.9 ± 3.2 | 761.6 ± 3 | 773.2 ± 2.9 | 0.12 ± 0.003 | 0.126 ± 0.003 | 0.132 ± 0.003
523.2 K, x1 = 0.2 | 694.1 ± 2.8 | 713.6 ± 3 | 728.3 ± 2.9 | 0.119 ± 0.003 | 0.127 ± 0.004 | 0.132 ± 0.004
523.2 K, x1 = 0.3 | 653.2 ± 3.6 | 676.9 ± 3.1 | 694.7 ± 3 | 0.114 ± 0.004 | 0.125 ± 0.004 | 0.134 ± 0.004
523.2 K, x1 = 0.4 | 622.3 ± 3.5 | 650.7 ± 3.1 | 671.6 ± 3 | 0.109 ± 0.003 | 0.119 ± 0.004 | 0.128 ± 0.004
523.2 K, x1 = 0.6 | 578.5 ± 3.6 | 612.4 ± 3.1 | 636.3 ± 3.1 | 0.099 ± 0.003 | 0.113 ± 0.004 | 0.124 ± 0.004
523.2 K, x1 = 0.8 | 550.5 ± 3.5 | 588.9 ± 3 | 615.2 ± 2.8 | 0.092 ± 0.003 | 0.107 ± 0.003 | 0.119 ± 0.003
523.2 K, x1 = 1 | 533.1 ± 3.3 | 573.6 ± 2.9 | 601.3 ± 2.8 | 0.087 ± 0.003 | 0.103 ± 0.003 | 0.115 ± 0.003
573.2 K, x1 = 0.1 | 649.3 ± 4.4 | – | – | 0.085 ± 0.003 | 0.088 ± 0.003 | –
573.2 K, x1 = 0.2 | 585.4 ± 5.3 | – | – | 0.078 ± 0.003 | 0.084 ± 0.003 | –
573.2 K, x1 = 0.3 | 534.9 ± 5.2 | – | – | 0.07 ± 0.003 | 0.079 ± 0.003 | –
573.2 K, x1 = 0.4 | 494.9 ± 4.9 | – | – | 0.065 ± 0.003 | 0.075 ± 0.003 | –
573.2 K, x1 = 0.6 | 446.2 ± 4.4 | – | – | 0.057 ± 0.002 | 0.069 ± 0.002 | –
573.2 K, x1 = 0.8 | 426.2 ± 4.1 | – | – | 0.054 ± 0.002 | 0.067 ± 0.002 | –
573.2 K, x1 = 1 | 421.1 ± 3.8 | – | – | 0.053 ± 0.002 | 0.066 ± 0.002 | –
